In paper PMC8270260, “4,7-Disubstituted 7H-Pyrrolo[2,3-d]pyrimidines and Their Analogs as Antiviral Agents against Zika Virus” (Molecules, 2021):
pEC50, pIC50: −log10 of the molar value.

Experiments:
DENV-2 = assay: DENV titer-reduction assay (plaque assay); assay type: cell-based, dengue virus; conditions: 8.5 µM (compound 14 at 1.5 µM), Huh7, MOI 0.05, 72 h
Experimental: (§1) Selected compounds were validated at 8.5 µM or 1.5 µM (for compounds considered toxic at higher concentrations) using titer-reduction assays. Huh7 cells (1.5 × 10^5 per well) were plated in 24-well plates. Next day, the cells were inoculated with ZIKV or DENV (MOI 0.2 or 0.05, respectively) and two hours later, the inoculum was replaced with post-infection medium containing compound of interest at 8.5 µM or 1.5 µM. Seventy-two hpi, supernatants from infected and treated cells were collected and viral titers were measured by plaque assay. To visualize plaques, confluent Vero cells in 24-well plates were inoculated with 1:10 serial dilutions of supernatants. After two hours, the inoculum was retired and replaced with 800 µL of overlay medium (MEM medium containing 1.3% methylcellulose, 2% FBS, 100 IU streptomycin/penicillin per mL and 10 mM HEPES). After 5 days (7 days for DENV), cells were washed with PBS, fixed with 2% formaldehyde, and stained using 0.5% crystal violet in 25% methanol. Infectious virus titer (pfu/mL) was determined using the following formula: number of plaques × dilution factor × (1/inoculum volume (mL)). Viral titers were normalized with DMSO-treated and infected cells (0% inhibition). The limit of detection was 200 pfu/mL (100% inhibition). […] Dose-response assays (Figure S4, Panels B and C) were performed for selected compounds using titer-reduction assays. We used a concentration range of 0.5 to 15 µM for all selected compounds except for compound 14 (range of 0.1–3 µM). Pfu/mL were normalized as mentioned for single-dose response experiment using the values for DMSO-treated and infected cells (0% inhibition) and the limit of detection value (200 pfu/mL) as 100% inhibition. Dose-response curves were built in GraphPad Prism and EC50 values were obtained from those curves.
Figure 2 Inhibition of DENV by selected compounds. Huh7 cells were plated in 24 well plate. Next day, cells were inoculated with DENV (MOI = 0.05). After 2 h of infection inoculum was retired and the cells were treated with inhibitors at 8.5 µM (except for compound 14, 1.5 µM) for 72 h. Next, supernatants were assayed for viral titer by plaque assay and titers were normalized vs DMSO and expressed as % inhibition. The experiment was performed two independent times and each sample was performed in triplicate. The bars depict mean plus standard error of the mean.

ZIKV [1] = assay: ZIKV titer-reduction assay (plaque assay); assay type: cell-based, Zika virus; conditions: Huh7, MOI 0.2, 72 hpi; for inhibition at 8.5 µM / pEC50 / EC90 / inhibition at 1.5 µM: Zika virus; for inhibition at 8.5 µM / inhibition at 1.5 µM: Huh-7, 72 h; for pEC50 / EC90: Huh-7
Experimental: as §1

ZIKV NS5 MTase = ZIKV NS5 MTase (Zika virus, UniProt A0A024B7W1); assay: ZIKV NS5 MTase biochemical assay; conditions: read-out: IC50 against ZIKV NS5 MTase
ZIKV [2] = assay: ZIKV reporter assay (luciferase-expressing ZIKV PAN1 Nluc in Huh7 cells); assay type: cell-based; conditions: Zika virus, Huh-7, Huh7, MOI 0.2, 72 hpi
Experimental: The initial screening for ZIKV was performed using the in-house developed infectious ZIKV reporter expressing Nanoluc (ZIKV PAN1 Nluc) (see details in SI). Briefly, 1.5 × 10^4 Huh7 cells per well were seeded in 96 well plates. Next day, cells were inoculated with the ZIKV reporter at a multiplicity of infection (MOI) of 0.2 in infection medium (MEM medium supplemented with 1% FBS, 100 IU streptomycin/penicillin per mL, 1 mM sodium pyruvate and 10 mM HEPES). After 2 h, the inoculum was replaced with post-infection medium (MEM medium supplemented with 5% FBS, 100 IU streptomycin/penicillin per mL, 1 mM sodium pyruvate and 10 mM HEPES) containing compound of interest (10 µM). We used the flavivirus NS5 MTase inhibitor NSC12155^13 (10 µM) and the NS5 RdRp inhibitor NITD008^12 (1 µM) as positive controls for inhibition or 0.05% DMSO as vehicle control. Seventy-two hours post-infection (hpi), the cells were lysed with 50 µL 1× luciferase lysis buffer (Promega, Madison, WI, USA), incubated 10 min at room temp and stored at −80 °C. Thirty-five µL of lysed cells were transferred to a white 96-well plate and combined with 35 µL Nano-Glo® luciferase assay substrate (Promega) diluted 1:50 in Nano-Glo® luciferase assay buffer (Promega). The reaction was incubated for 2 min and luminescence readings were acquired using a Neo 2 plate reader (BioTek, Winooski, VT, USA). Percent inhibition was calculated in GraphPad Prism (San Diego, CA, USA) normalizing the luciferase signal to infected cells treated with DMSO (0% inhibition) and uninfected cells treated with DMSO (100% inhibition). EC50 values were calculated in GraphPad Prism using data obtained from dose-response experiments. For compounds 1 and 8, a range of concentrations between 0.05 and 15 µM were used. For compounds 11, 14, 23 and NSC12155, we used concentrations from 0.005 to 90 µM and 0.002 to 45 µM for NITD008.

[3] = Cell viability assay (MTS); assay type: cell-based; conditions: human, non-infected Huh7 cells; for viability at 10 µM: normalized to DMSO; for CC50 at 72 h: Huh7 cells
Experimental: Cell viability assays for non-infected Huh7 cells treated with the testing compounds (in-house library), control compounds (NITD008, RDV) and DMSO were performed in parallel with the antiviral screening. After 3 or 5 days of treatment, depending upon the experiment, cell viability was evaluated using the MTS-based tetrazolium reduction CellTiter 96 Aqueous Non-Radioactive cell proliferation assay (Promega). Treatment was retired from the wells and the cells incubated with MTS diluted 1:10 in MEM medium supplemented with 10% FBS. Absorbance was measured at 490 nm wavelength. Readings were normalized with DMSO-treated cells (100%) and expressed as % viability. For dose-response experiments, we used concentrations between 0.01 and 90 µM and dose-response curves and CC50 were calculated using GraphPad Prism.

Chain of ZIKV NS5 MTase (A0A024B7W1 2521-2785): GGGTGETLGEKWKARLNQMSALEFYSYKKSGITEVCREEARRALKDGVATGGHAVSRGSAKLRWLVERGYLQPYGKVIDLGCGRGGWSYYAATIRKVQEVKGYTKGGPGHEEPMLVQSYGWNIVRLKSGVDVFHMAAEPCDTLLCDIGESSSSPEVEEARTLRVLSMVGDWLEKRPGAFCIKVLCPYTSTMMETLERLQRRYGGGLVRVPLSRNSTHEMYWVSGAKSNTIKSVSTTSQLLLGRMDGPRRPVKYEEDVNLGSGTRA

Structure (SMILES)	Inhibition of DENV (% inhibition / protection) (DENV-2)	inhibition at 8.5 µM (ZIKV [1])	pEC50 (ZIKV [1])	EC90 (ZIKV [1])	pIC50 (ZIKV NS5 MTase)	inhibition at 10 µM (ZIKV [2])	pEC50 (ZIKV [2])	viability at 10 µM [3]	CC50 at 72 h [3]	inhibition at 1.5 µM (ZIKV [1])	Titer Reduction Assay EC99 (ZIKV [1]; NR = not reached)
O=[N+]([O-])c1ccc(Cn2ccc3c(NCc4cccc(Cl)c4)ncnc32)cc1 [Compound 1, N-(3-Chlorobenzyl)-7-(4-nitrobenzyl)-7H-pyrrolo [2,3-d]pyrimidin-4-amine]	among the top inhibitors	93%	5.28	10.7 µM	< 4.00	73%	5.28	69%	20 µM		
N#Cc1ccc(Cn2ccc3c(NCc4cccc(Cl)c4)ncnc32)cc1 [Compound 8, 4-((4-((3-Chlorobenzyl)amino)-7H-pyrrolo[2,3-d]pyrimidin-7-yl)methyl)benzonitrile]	among the top inhibitors	97%	5.37	9.02 µM		78%	5.39	68%	20.6 µM	47%	
N#Cc1cccc(Cn2ccc3c(NCc4cccc(Cl)c4)ncnc32)c1 [Compound 11, 3-((4-((3-Chlorobenzyl)amino)-7H-pyrrolo[2,3-d]pyrimidin-7-yl)methyl)benzonitrile]	among the top inhibitors	99%	5.30	6.98 µM		90%	5.50	60%	15.3 µM		
O=[N+]([O-])c1ccc(Cn2ccc3c(NCc4cc(Cl)ccc4Cl)ncnc32)cc1 [Compound 22, N-(2,5-Dichlorobenzyl)-7-(4-nitrobenzyl)-7H-pyrrolo[2,3-d]pyrimidin-4-amine]		77%				71%		62%	26.9 µM		
O=[N+]([O-])c1ccc(Cn2ccc3c(NCc4ccc(Cl)c(Cl)c4)ncnc32)cc1 [Compound 23, N-(3,4-Dichlorobenzyl)-7-(4-nitrobenzyl)-7H-pyrrolo[2,3-d]pyrimidin-4-amine]	among the top inhibitors	98%	5.23	10.4 µM		91%	5.24	80%	26.8 µM		12.0 µM
O=[N+]([O-])c1ccc(Cn2ccc3c(NCc4cccc5ccccc45)ncnc32)cc1 [Compound 24, N-(Naphthalen-1-ylmethyl)-7-(4-nitrobenzyl)-7H-pyrrolo[2,3-d]pyrimidin-4-amine]						94%		44%		13%	
O=[N+]([O-])c1ccc(Cn2cnc3c(NCc4cccc(Cl)c4)ncnc32)cc1 [Compound 29, N-(3-Chlorobenzyl)-9-(4-nitrobenzyl)-9H-purin-6-amine]		90%				59%		87%	24.5 µM		
N#Cc1ccc(Cn2cnc3c(NCc4cccc(Cl)c4)ncnc32)cc1 [Compound 30, 4-((6-((3-Chlorobenzyl)amino)-9H-purin-9-yl)methyl)benzonitrile]		93%	5.15	12.4 µM		68%		94%	49.3 µM		
O=[N+]([O-])c1ccc(Cn2ncc3c(NCc4cccc(Cl)c4)ncnc32)cc1 [Compound 31, N-(3-Chlorobenzyl)-1-(4-nitrobenzyl)-1H-pyrazolo[3,4-d]pyrimidin-4-amine]		86%				83%		96%			
N#Cc1ccc(Cn2ncc3c(NCc4cccc(Cl)c4)ncnc32)cc1 [Compound 32, 4-((4-((3-Chlorobenzyl)amino)-1H-pyrazolo[3,4-d]pyrimidin-1-yl)methyl)benzonitrile]		88%				79%		88%	17.4 µM		
Cc1cc(N)c2cc(NC(=O)Nc3ccc4nc(C)cc(N)c4c3)ccc2n1 [NSC 12155, reference compound]		72%	5.13	14.1 µM		68%	5.66	70%	23 µM	37%	
